Where two headings read alike, the source gives them in different places.
How the values were obtained:
p210^bcr/abl = details: immune complex kinase assays; cited from earlier work
[1] = animal testing, in vivo; unpublished observations of Stinson, Narayanan and Sausville; adaphostin compared with AG957; cited from earlier work
K562 cells [2] = experiment: Morphologic changes associated with apoptosis (Hoechst 33258 staining) in K562 cells; format: cell-based, human; details: 24 h
Procedure: For morphological analysis, cells are fixed in 3:1 (v:v) methanol:acetic acid, stained with 1 μg/ml Hoechst 33258 in 50% (v:v) glycerol and examined under epi-illumination using a Zeiss Axioplan microscope. Two hundred to 300 cells/sample are scored for apoptotic changes (peripheral chromatin condensed or nuclear fragmentation) as described in Svingen et al., Clin. Cancer Res. 6, 237-49 (2000).
Under (c) in Table (A), K562 cells are incubated with the concentration indicated in the subsequent table in the presence of diluent or 10 μmol/l STI 571, fixed, and examined for apoptotic morphological changes.

CML CFU-G = experiment: Granulocyte colony formation of circulating mononuclear cells from CML patients (CFU-G / CFU-GM); format: cell-based, human; details: for Number of colonies (% of control): (d) Pt. #30 CFU-GM, 24 h; for IC50: Homo sapiens, CFU-GM, linear regression
Procedure: Clinical samples are studied under the aegis of a protocol approved by the Institutional Review Board of the Mayo Clinic in accordance with the policies of the US Department of Health and Human Services. […] CML CFU-G, 10 mL of peripheral blood is drawn from normal volunteers and consenting patients with previously untreated chronic phase CML using EDTA as an anticoagulant. […] At the completion of the incubation, samples are sedimented at 200×g for 10 min, resuspended at a concentration of 1×10^6/ml in medium C containing 50 ng/mL G-CSF, plated in 0.3% agar, and incubated for 7-8 d. Colonies containing […] are counted on an inverted phase contrast microscope.

K562 cells [3] = experiment: Clonogenic assay (colony formation in 0.3% agar) of K562 cells; format: cell-based, human; details: 24 h
Procedure: At the completion of the incubation, cells are washed, plated in 0.3% agar and incubated for 10-14 days before colony formation is assessed. For results see under (a) in Table (A). […] At the completion of the incubation, colony formation ability is assessed as described in the last paragraph.

[4] = compared with AG957; Svingen et al.; cited from earlier work

## COC(=O)c1ccc(NCc2cc(O)ccc2O)cc1 [AG957]
p210^bcr/abl
  p210^bcr/abl activity: inhibit
[1]
  serum half-life: very short

## O=C(OC12CC3CC(CC(C3)C1)C2)c1ccc(NCc2cc(O)ccc2O)cc1 [Adaphostin, 4-{[(2,5-dihydroxyphenyl)methyl]amino}-benzoic acid adamantyl ester]
K562 cells [2]; (c) adaphostin 0.62 μmol/l without STI571
  Apoptosis (% of total cells): 2.1 % of total cells
K562 cells [2]; (c) adaphostin 1.25 μmol/l without STI571
  Apoptosis (% of total cells): 10.9 % of total cells
K562 cells [2]; (c) adaphostin 2.50 μmol/l without STI571
  Apoptosis (% of total cells): 41.8 % of total cells
K562 cells [2]; (c) adaphostin 3.75 μmol/l without STI571
  Apoptosis (% of total cells): 62.8 % of total cells
K562 cells [2]; (c) adaphostin 5.00 μmol/l without STI571
  Apoptosis (% of total cells): 84.1 % of total cells
CML CFU-G; adaphostin 3.2 μmol/l without STI571
  Number of colonies (% of control): 93 ± 1.9 % of control
CML CFU-G; adaphostin 6.4 μmol/l without STI571
  Number of colonies (% of control): 71 ± 2.2 % of control
CML CFU-G; adaphostin 12.7 μmol/l without STI571
  Number of colonies (% of control): 55 ± 2.5 % of control
CML CFU-G; adaphostin 15.9 μmol/l without STI571
  Number of colonies (% of control): 40 ± 1.2 % of control
CML CFU-G; adaphostin 19.1 μmol/l without STI571
  Number of colonies (% of control): 18 ± 0.7 % of control
CML CFU-G; read-out: IC50 for Adaphostin in presence of 20 μmol/l STI571, CFU-GM, patient number 28
  IC50: 5 µM
CML CFU-G; read-out: IC50 for Adaphostin in presence of 20 μmol/l STI571, CFU-GM, patient number 29
  IC50: 14 µM
CML CFU-G; read-out: IC50 for Adaphostin in presence of 20 μmol/l STI571, CFU-GM, patient number 30
  IC50: 8.5 µM
CML CFU-G; read-out: IC50 for Adaphostin in presence of 20 μmol/l STI571, CFU-GM, patient number 31
  IC50: 10 µM
CML CFU-G; read-out: IC50 for Adaphostin in presence of 20 μmol/l STI571, CFU-GM, patient number 33
  IC50: 16 µM
CML CFU-G; read-out: IC50 for Adaphostin in presence of 20 μmol/l STI571, CFU-GM, patient number 34
  IC50: 3.5 µM
CML CFU-G; read-out: IC50 for Adaphostin without STI571, CFU-GM, patient number 28
  IC50: 13 µM
CML CFU-G; read-out: IC50 for Adaphostin without STI571, CFU-GM, patient number 29
  IC50: > 20 µM
CML CFU-G; read-out: IC50 for Adaphostin without STI571, CFU-GM, patient number 30
  IC50: 13.5 µM
CML CFU-G; read-out: IC50 for Adaphostin without STI571, CFU-GM, patient number 31
  IC50: 8.5 µM
CML CFU-G; read-out: IC50 for Adaphostin without STI571, CFU-GM, patient number 33
  IC50: 23 µM
CML CFU-G; read-out: IC50 for Adaphostin without STI571, CFU-GM, patient number 34
  IC50: 11 µM
K562 cells [3]; (a) adaphostin 2.5 μmol/l without STI571
  Number of colonies (% of control): 56 ± 4 % of control
K562 cells [3]; (a) adaphostin 5.1 μmol/l without STI571
  Number of colonies (% of control): 46 ± 4 % of control
K562 cells [3]; (a) adaphostin 7.7 μmol/l without STI571
  Number of colonies (% of control): 27 ± 4 % of control
K562 cells [3]; (a) adaphostin 10.2 μmol/l without STI571
  Number of colonies (% of control): 10 ± 1 % of control
K562 cells [3]; (b) adaphostin 5.2 μmol/l, STI571 0
  Number of colonies (% of control): 35 ± 3 % of control
[1]
  serum half-life: longer
[4]
  potency in vitro: higher

## Cc1ccc(NC(=O)c2ccc(CN3CCN(C)CC3)cc2)cc1Nc1nccc(-c2cccnc2)n1 [STI571, N-{5-[4-(4-methyl-piperazino-methyl)-benzoylamido]-2-methylphenyl}-4-(3-pyridyl)-2-pyrimidine-amine]
K562 cells [2]; (c) STI571 10 μmol/l, adaphostin 0
  Apoptosis (% of total cells): 12.9 % of total cells
